Where two headings read alike, the source gives them in different places.
Legend:
SARS-CoV-2 3CL protease = SARS-CoV-2 3CL protease (Severe acute respiratory syndrome coronavirus 2, UniProt P0DTD1); assay: biochemical; settings: 50% SARS-CoV-2 3CL protease inhibitory concentration, read-out: IC50
SARS-CoV-2 = assay: microbe, parasite or virus in culture; assay type: cell-based; settings: Severe acute respiratory syndrome coronavirus 2, VeroE6/TMPRSS2, 72 h, 50% SARS-CoV-2 infected cell death inhibitory concentration, VeroE6/TMPRSS2 cells, 3 days culture

SMILES	IC50 (SARS-CoV-2 3CL protease; given as class symbols)	EC50 (SARS-CoV-2; class symbols)	IC50 (SARS-CoV-2 3CL protease; RapidFire MS)	EC50 (SARS-CoV-2; CellTiter-Glo 2.0)
Cn1nc2cc(Cl)c(Nc3nc(=O)n(Cc4cccnc4O)c(=O)n3Cc3cc(F)c(F)c(F)c3)cc2c1CCCO [Compound I-0364]	< 0.1 µM	1 to 10 µM		
COc1ccc(Nc2nc(=O)n(Cc3cc4sccc4[nH]c3=O)c(=O)n2Cc2cc(F)c(F)c(F)c2)cc1 [II-0342]	< 0.1 µM	1 to 10 µM		
Cc1cncc(-n2c(=O)nc(Nc3cc4cn(C)nc4cc3Cl)n(Cc3cc(Cl)c(F)cc3F)c2=O)c1 [II-0377]			0.003 µM	0.049 µM
Cn1cc2cc(Nc3nc(=O)n(-c4cncc5ccccc45)c(=O)n3Cc3ccc(F)c(C#N)c3)c(Cl)cc2n1 [Compound I-0379]	< 0.1 µM	< 1 µM		
CNc1nc2cc(Cl)c(Nc3nc(=O)n(-c4cncc(C)c4)c(=O)n3Cc3cc(F)c(F)c(F)c3)cc2s1 [II-0318]	< 0.1 µM	< 1 µM		
CNc1nc2cc(Cl)c(Nc3nc(=O)n(-c4cncc(Cl)c4)c(=O)n3Cc3cc(C#N)c(F)cn3)cc2s1 [II-0126]	< 0.1 µM	1 to 10 µM		
Cc1cncc(-n2c(=O)nc(Nc3cc4cn(C)nc4cc3Cl)n(Cc3cc(Br)cc(C#N)c3)c2=O)c1 [II-0210]	< 0.1 µM	1 to 10 µM		
CC(=O)Nc1nc2cc(Cl)c(Nc3nc(=O)n(-c4cncc(C)c4)c(=O)n3Cc3ccc(F)c(C#N)c3)cc2s1 [II-0555]	< 0.1 µM	1 to 10 µM		
Cn1cc2cc(Nc3nc(=O)n(-c4cncc(C#N)c4)c(=O)n3Cc3ccc(F)c(C#N)c3)ccc2n1 [II-0389]			0.045 µM	4.4 µM
Cc1cncc(-n2c(=O)nc(Nc3cc4cn(CC(F)F)nc4cc3F)n(Cc3ccc(F)c(C#N)c3)c2=O)c1 [II-0439]	< 0.1 µM	< 1 µM		
Cc1cncc(-n2c(=O)nc(Nc3cc4cn(C)nc4cc3Cl)n(Cc3ccc(F)c(C#N)c3)c2=O)c1F [II-0265]	< 0.1 µM	< 1 µM		
CNC(=O)Cn1cc2cc(Nc3nc(=O)n(-c4cncc(C)c4)c(=O)n3Cc3cc(F)c(F)c(F)c3)c(Cl)cc2n1 [II-0440]	< 0.1 µM	1 to 10 µM		
Cc1cncc(-n2c(=O)nc(Nc3cc4c(cc3Cl)OCCC4)n(Cc3ccc(F)c(C#N)c3)c2=O)c1 [II-0144]	< 0.1 µM	< 1 µM		
CNc1nc2cc(Cl)c(Nc3nc(=O)n(-c4cncc(C)c4)c(=O)n3Cc3ccc(F)c(C#N)c3)cc2n1C [II-0414]	< 0.1 µM	1 to 10 µM		
O=c1[nH]cccc1Cn1c(=O)nc(N2Cc3ccccc3C2)n(Cc2cc(F)c(F)c(F)c2)c1=O [Compound I-0180]			0.058 µM	6.41 µM
COc1ccc(Nc2nc(=O)n(-c3cncc(C)c3)c(=O)n2Cc2ccc(F)c(C#N)c2)c(C)c1 [II-0162]	< 0.1 µM	< 1 µM		
Cc1cncc(-n2c(=O)nc(Nc3cc4cn(CC(=O)N(C)C)nc4cc3Cl)n(Cc3cc(F)c(F)c(F)c3)c2=O)c1 [II-0281]	< 0.1 µM	1 to 10 µM		
Cc1nc2ccc(Nc3nc(=O)n(-c4cncc5ccccc45)c(=O)n3Cc3ccc(F)c(C#N)c3)cc2s1 [II-0198]	< 0.1 µM	< 1 µM		
Cc1c2cc(Nc3nc(=O)n(-c4cncc(Cl)c4)c(=O)n3Cc3ccc(F)c(C#N)c3)ccc2nn1C [II-0267]	< 0.1 µM	1 to 10 µM		

SMILES	IC50 (SARS-CoV-2 3CL protease; given as class symbols)	EC50 (SARS-CoV-2; class symbols)	IC50 (SARS-CoV-2 3CL protease; RapidFire MS)	EC50 (SARS-CoV-2; CellTiter-Glo 2.0)
Cn1cnc(Cn2c(=O)nc(Nc3cc4cn(C)nc4cc3F)n(Cc3cc(F)c(F)c(Cl)c3)c2=O)n1 [II-0060]	< 0.1 µM	1 to 10 µM		
O=c1[nH]cccc1Cn1c(=O)nc(Nc2cc3ccnn3cc2Cl)n(Cc2cc(F)c(F)c(F)c2)c1=O [Compound I-0247]		1 to 10 µM	0.025 µM	3.54 µM
Cn1cc2cc(Nc3nc(=O)n(Cc4cc(Cl)ccn4)c(=O)n3Cc3cc(F)c(F)cc3F)c(Cl)cc2n1 [II-0255]			0.1 µM	1.52 µM
CNc1nc2ccc(Nc3nc(=O)n(-c4cncc(C)c4)c(=O)n3Cc3cc(F)c(F)c(F)c3)cc2s1 [II-0323]	< 0.1 µM	< 1 µM		
COc1cc(Cl)c(Nc2nc(=O)n(Cc3ccc[nH]c3=O)c(=O)n2Cc2cc(F)c(F)c(F)c2)cn1 [Compound I-0245]	< 0.1 µM	1 to 10 µM		
N#Cc1cc(Cn2c(Nc3cc4c(cc3Cl)OCC4)nc(=O)n(Cc3ccc[nH]c3=O)c2=O)ccc1F [Compound I-0013]	< 0.1 µM	1 to 10 µM		
Cc1cncc(-n2c(=O)nc(Nc3cc4c(C)n(C)nc4cc3Cl)n(Cc3cc(F)c(F)c(F)c3)c2=O)c1 [II-0449]	< 0.1 µM	< 1 µM		
COc1ccc(Nc2nc(=O)n(-c3cncc4ccccc34)c(=O)n2Cc2cc(F)c(F)c(F)c2)cc1 [Compound I-0136]	< 0.1 µM	1 to 10 µM		
Cn1cc2cc(Nc3nc(=O)n(CC(=O)NC4CCCCC4)c(=O)n3Cc3cc(F)c(F)c(F)c3)c(Cl)cc2n1 [II-0330]			3.6 µM	42.2 µM
CNc1nc2cc(Cl)c(Nc3nc(=O)n(-c4cncc(C)c4)c(=O)n3Cc3cc(Cl)c(F)cn3)cc2s1 [II-0589]	< 0.1 µM	1 to 10 µM		
Cn1cnc(Cn2c(=O)nc(Nc3cc4c(C5CC5)n(C)nc4cc3Cl)n(Cc3cc(F)c(F)cc3F)c2=O)n1 [II-0446]	< 0.1 µM	1 to 10 µM		
COc1cc(F)c(C#N)cc1Cn1c(Nc2cc3cn(C)nc3cc2Cl)nc(=O)n(-c2cncc(C)c2)c1=O [II-0093]			0.012 µM	0.487 µM
Cn1cc2cc(Nc3nc(=O)n(-c4cncc(N)c4)c(=O)n3Cc3cc(F)c(F)c(Cl)c3)c(Cl)cc2n1 [II-0384]	< 0.1 µM	1 to 10 µM		
Cn1cnc(Cn2c(=O)nc(Nc3cc4c(cc3Cl)nc3n4CCN3)n(Cc3cc(Cl)c(F)cc3F)c2=O)n1 [II-0522]			0.0041 µM	15 µM
COc1ccc(Nc2nc(=O)n(-c3cncc4ccccc34)c(=O)n2Cc2cc(F)c(F)c(F)c2)c(Cl)c1 [Compound I-0152]	< 0.1 µM	< 1 µM		
Cn1cnc(Cn2c(=O)nc(Nc3cc4sc(NCC(F)F)nc4cc3Cl)n(Cc3cc(F)c(F)cc3F)c2=O)n1 [II-0500]	< 0.1 µM	1 to 10 µM		
Cc1nc2cc(Cl)c(Nc3nc(=O)n(Cc4ccc[nH]c4=O)c(=O)n3Cc3cc(F)c(F)c(Cl)c3)cc2n1C [Compound I-0264]	< 0.1 µM	1 to 10 µM		
O=c1[nH]cccc1Cn1c(=O)nc(Nc2cc3cn(CCCO)nc3cc2Cl)n(Cc2cc(F)c(F)c(F)c2)c1=O [Compound I-0450]	< 0.1 µM	1 to 10 µM		
Cn1cnc(Cn2c(=O)nc(Nc3cc4cn(C)nc4cc3Cl)n(Cc3cc(Cl)ccc3F)c2=O)n1 [II-0361]	< 0.1 µM	< 1 µM		

SMILES	IC50 (SARS-CoV-2 3CL protease; given as class symbols)	EC50 (SARS-CoV-2; class symbols)	IC50 (SARS-CoV-2 3CL protease; RapidFire MS)	EC50 (SARS-CoV-2; CellTiter-Glo 2.0)
N#Cc1cc(Cn2c(Nc3ccc4nn(CC(F)F)cc4c3)nc(=O)n(-c3cncc4ccccc34)c2=O)ccc1F [Compound I-0352]	< 0.1 µM	< 1 µM		
Cc1cncc(-n2c(=O)nc(Nc3cc4cn(C)nc4cc3Cl)n(Cc3cc(C#N)c(F)cc3CCC(C)C)c2=O)c1 [II-0092]	< 0.1 µM	< 1 µM		
COCCCc1c2cc(Nc3nc(=O)n(Cc4ccc[nH]c4=O)c(=O)n3Cc3cc(F)c(F)c(F)c3)c(Cl)cc2nn1C [Compound I-0365]	< 0.1 µM	1 to 10 µM		
Cc1cncc(-n2c(=O)nc(Nc3cc4cn(C)nc4cc3Cl)n(Cc3cc(C#N)ccc3CF)c2=O)c1 [II-0334]			0.0028 µM	0.62 µM
COc1ccc(Nc2nc(=O)n(Cc3ccc[nH]c3=O)c(=O)n2Cc2cc(F)c(F)c(F)c2)c(F)c1 [Compound I-0026]	< 0.1 µM	1 to 10 µM		
Cc1cncc(-n2c(=O)nc(Nc3ccc4nn(CC(F)(F)F)cc4c3)n(Cc3cc(C#N)ccc3Cl)c2=O)c1 [II-0001]			0.0034 µM	0.466 µM
C#Cc1cc(F)c(F)cc1Cn1c(Nc2cc3cn(C)nc3cc2Cl)nc(=O)n(-c2cncc(C)c2)c1=O [II-0065]	< 0.1 µM	< 1 µM		
Cc1cncc(-n2c(=O)nc(Nc3cc4sc(C)nc4cc3Cl)n(Cc3ccc(F)c(C#N)c3)c2=O)c1 [II-0193]	< 0.1 µM	1 to 10 µM		
CSc1nc(=O)n(-c2cncc3ccccc23)c(=O)n1Cc1cc(F)c(F)c(F)c1 [II-0232]		< 1 µM	3.7 µM	
Cc1nc2ccc(Nc3nc(=O)n(-c4cncc5ccccc45)c(=O)n3Cc3ccc(F)c(C#N)c3)cc2o1 [II-0176]	< 0.1 µM	< 1 µM		
CNc1nc2cc(Cl)c(Nc3nc(=O)n(Cc4ncn(C)n4)c(=O)n3Cc3cc(F)c(F)c(Cl)c3)cc2o1 [II-0059]	< 0.1 µM	1 to 10 µM		
Cn1cnc(Cn2c(=O)nc(Nc3cc4cn(CC(F)F)nc4cc3Cl)n(Cc3cc(Cl)c(F)cc3F)c2=O)n1 [II-0569]			0.0042 µM	0.419 µM
Cc1cncc(-n2c(=O)nc(Nc3cc4cn(C)nc4cc3Cl)n(Cc3cc(C#N)c(F)cc3Cl)c2=O)c1 [II-0087]			0.0025 µM	0.069 µM
O=c1[nH]cccc1Cn1c(=O)nc(NCC2CCCC2)n(Cc2cc(F)c(F)c(F)c2)c1=O [II-0371]			0.54 µM	13.3 µM
Cc1cncc(-n2c(=O)nc(Nc3cc4cn(C5COC5)nc4cc3Cl)n(Cc3ccc(F)c(C#N)c3)c2=O)c1 [II-0158]	< 0.1 µM	1 to 10 µM		
O=c1[nH]cccc1Cn1c(=O)nc(Nc2cc3cccnc3cc2Cl)n(Cc2cc(F)c(F)c(F)c2)c1=O [Compound I-0279]	< 0.1 µM	1 to 10 µM		
Cc1cncc(-n2c(=O)nc(Nc3cc4cn(C)nc4cc3F)n(Cc3ccc(F)c(C#N)c3)c2=O)c1 [Compound I-0384]	< 0.1 µM	< 1 µM		
N#CC1(Cn2cc3cc(Nc4nc(=O)n(Cc5ccc[nH]c5=O)c(=O)n4Cc4cc(F)c(F)c(F)c4)c(Cl)cc3n2)CC1 [II-0412]	< 0.1 µM	1 to 10 µM		
Cc1cncc(-n2c(=O)nc(Nc3cc4cn(CCO)nc4cc3Cl)n(Cc3ccc(F)c(C#N)c3)c2=O)c1 [II-0140]	< 0.1 µM	1 to 10 µM		
